Assay results from paper PMC11274883, “Anticancer Effect of Pt^[sequence], Pt^II5MESS, Pt^II56MESS and Their Platinum(IV)-Dihydroxy Derivatives against Triple-Negative Breast Cancer and Cisplatin-Resistant Colorectal Cancer” (Cancers, 2024).

Tests used:
Type in all cases: cell-based
A2780 = experiment: WST-1 cytotoxicity, 72 h
Description: (§1) Cells were seeded in 96-well flat-bottom culture plates at a concentration of 1000 cells per well. […] After 72 h, the medium was removed and replaced with new medium. The cell viability reagent WST-1 (10 µL, Roche Diagnostics, Indianapolis, IN, USA) was added to each well. After an hour, the absorbance was measured at 450 nm using a versatile microplate reader (Bio-strategy, Campbellfield, VIC, Australia). Three separate experiments were performed, each with n = 3 replicates. GraphPad prism 10 was used to calculate apparent IC50 values using the nonlinear regression model Y = Bottom + (Top-Bottom)/(1 + 10^(X-LogIC50)) where Top and bottom are plateaus in the y-axis (% survival).

ADDP = experiment: WST-1 cytotoxicity, 72 h
Description: as §1

HT29 = experiment: WST-1 cytotoxicity, 72 h
Description: as §1

MCF−7 = experiment: WST-1 cytotoxicity, 72 h
Description: as §1

MDA−MB−231 = experiment: WST-1 cytotoxicity, 72 h
Description: as §1

MCF10A = experiment: WST-1 cytotoxicity, 72 h; details: mean ± SEM
Description: as §1, with “survival). The R^2 value of the curve fits ranged from 0.8972 to 0.9794.” for “survival).”

HT29 cells = experiment: Western blot protein expression; details: HT29, IC50, 72 h
Description: (§2) Protein extraction was then performed on ice. Media were collected in Eppendorf tubes, and centrifuged at 500× g for 5 min at 4 °C. Meanwhile, 200 µL of lysis RIPA buffer, made up of 150 mM NaCl, 50 mM Tris-HCl, pH 8.0, 0.1% Triton X-100, 0.5% sodium deoxycholate, 0.1% SDS and 1 mM sodium orthovanadate, was added to each well, the cells were scrapped into the buffer, and added to the media-derived pellets. The tubes were placed on the shaker for 10 min at 4 °C. Then, cell extracts were centrifuged at 12,000× g for 15 min at 4 °C, and the supernatants (containing the proteins) were collected. The Bio-Rad-DC protein assay (Bio-Rad, Hercules, CA, USA) was used to assess protein content. Laemmli protein sample buffer (4×) with β-mercaptoethanol (9%) was used to prepare a final protein concentration of 20 µg. The samples were then heated at 100 °C for 5 min. A final volume of 30 µL of each sample was added per well and subjected to SDS-PAGE using Bolt 4–12% Bis-Tris gel (Thermo Fisher, Eugene, OR, USA) at 80 V for 30 min and then 120 V for 60 min with PageRuler™ Prestained Protein or SeeBlue Prestained Protein Ladder (Thermo Fisher, Eugene, OR, USA). Proteins were subsequently transferred to a 0.2 µm PVDF membrane (Amersham, Cytiya) using a semi-dry blot transfer. The membrane was then blocked in 5% BSA in TBST, for 1 h and probed overnight at 4 °C with primary antibodies against several cell proliferation, apoptotic, anti-apoptotic, microtubule and autophagic protein markers listed in Table S7 as per the manufacturer’s protocol. The primary antibody was then removed, washed three times for 10 min with TBST and then membranes were treated with either mouse or rabbit HRP-coupled secondary antibodies (1/3000) for 1 h and 30 min. Protein band detection was then performed using the chemiluminescence ECL kit (Thermo Fisher, Eugene, OR, USA). Blot images were obtained using the Odyssey® FC imaging system (LI-COR Biosciences, Lincoln, NE, USA) and band intensities were quantified relatively to glyceraldehyde-3-phosphate dehydrogenase (GAPDH) and then normalised each replicate gel to its corresponding no treatment control using the ImageJ v1.53t software (National Institutes of Health, Bethesda, MD, USA). Each marker results from the same experiment or parallel experiment where the gels were processed in parallel. Three independent experiments per marker were conducted.

MDA−MB−231 cells = experiment: Western blot protein expression; details: MDA−MB−231, IC50, 72 h
Description: as §2

[1] = representative blot Figure S30G
[2] = representative blot Figure S30H

Cc1c(C)c2cccnc2c2ncccc12.N[C@H]1CCCC[C@@H]1N.O=[N+]([O-])[O-].O=[N+]([O-])[O-].[OH][Pt+2][OH] [Pt^IV56MESS(OH)2, [Pt(5,6-dimethyl-1,10-phenanthroline)(1S,2S-diaminocyclohexane)(dihydroxy)](NO3)2]
potency relative to cisplatin (A2780; A2780, 72 h): 13 fold | IC50 (A2780; A2780, 72 h, mean ± SEM): 1690 ± 1360 nM | Selective cytotoxicity index (SCI) (A2780; IC50 MCF10A/IC50 A2780): 2.90 | potency relative to cisplatin (ADDP; ADDP, 72 h): 27 fold | IC50 (ADDP; ADDP, 72 h, mean ± SEM): 4170 ± 1550 nM | Selective cytotoxicity index (SCI) (ADDP; IC50 MCF10A/IC50 ADDP): 1.18 | potency relative to cisplatin (HT29; HT29, 72 h): 62 fold | IC50 (HT29; HT29, 72 h, mean ± SEM): 1250 ± 1380 nM | Selective cytotoxicity index (SCI) (HT29; IC50 MCF10A/IC50 HT29): 3.93 | Selective cytotoxicity index (SCI) (MCF−7; IC50 MCF10A/IC50 MCF−7): 3.61 | potency relative to cisplatin (MCF−7; MCF−7, 72 h): 24 fold | IC50 (MCF−7; MCF−7, 72 h, mean ± SEM): 1360 ± 1470 nM | Selective cytotoxicity index (SCI) (MDA−MB−231; IC50 MCF10A/IC50 MDA−MB−231): 6.92 | potency relative to cisplatin (MDA−MB−231; MDA−MB−231, 72 h): 18 fold | IC50 (MDA−MB−231; MDA−MB−231, 72 h, mean ± SEM): 710 ± 1220 nM | IC50 (MCF10A): 4910 ± 1450 nM | β-actin/GAPDH normalized to control (1) (HT29 cells; representative blot Figure S28A): 1.209 | β-tubulin/GAPDH normalized to control (1) (HT29 cells; representative blot Figure S28B): 0.7075 | α-tubulin/GAPDH normalized to control (1) (HT29 cells; representative blot Figure S28C): 0.5719 | p-AKT/AKT/GAPDH normalized to control (1) (HT29 cells; representative blot Figure S29A): 0.7209 | p-ERK/ERK/GAPDH normalized to control (1) (HT29 cells; representative blot Figure S29B): 1.28 | p53/GAPDH normalized to control (1) (HT29 cells; representative blot Figure S29C): 5.047 | p21/GAPDH normalized to control (1) (HT29 cells; representative blot Figure S29D): 2.808 | Bax/GAPDH normalized to control (1) (HT29 cells; representative blot Figure S30A): 3.498 | Bcl2/GAPDH normalized to control (1) (HT29 cells; representative blot Figure S30B): 1.034 | Cyt C/GAPDH normalized to control (1) (HT29 cells; representative blot Figure S30C): 7.663 | Procaspase 8/GAPDH normalized to control (1) (HT29 cells; representative blot Figure S30D): 0.4035 | Cleaved BID/GAPDH normalized to control (1) (HT29 cells; representative blot Figure S30E): 2.651 | Procaspase 9/GAPDH normalized to control (1) (HT29 cells; representative blot Figure S30F): 0.4964 | Cleaved caspase 3/GAPDH normalized to control (1) (HT29 cells; [1]): 1.746 | Procaspase 3/GAPDH normalized to control (1) (HT29 cells; [1]): 1.297 | Cleaved PARP-1/GAPDH normalized to control (1) (HT29 cells; [2]): 2.724 | PARP-1/GAPDH normalized to control (1) (HT29 cells; [2]): 0.7172 | Beclin1/GAPDH normalized to control (1) (HT29 cells; representative blot Figure S31A): 6.222 | ATG5/GAPDH normalized to control (1) (HT29 cells; representative blot Figure S31B): 0.3221 | ATG16L1/GAPDH normalized to control (1) (HT29 cells; representative blot Figure S31C): 4.523 | ATG9A/GAPDH normalized to control (1) (HT29 cells; representative blot Figure S31D): 0.9044 | ATG4B/GAPDH normalized to control (1) (HT29 cells; representative blot Figure S31E): 0.9223 | LC3B/GAPDH normalized to control (1) (HT29 cells; representative blot Figure S31F): 1.976 | β-actin/GAPDH normalized to control (1) (MDA−MB−231 cells; representative blot Figure S24A): 0.6671 | β-tubulin/GAPDH normalized to control (1) (MDA−MB−231 cells; representative blot Figure S24B): 0.4289 | α-tubulin/GAPDH normalized to control (1) (MDA−MB−231 cells; representative blot Figure S24C): 1.359 | p-AKT/AKT/GAPDH normalized to control (1) (MDA−MB−231 cells; representative blot Figure S25A): 0.79 | p-ERK/ERK/GAPDH normalized to control (1) (MDA−MB−231 cells; representative blot Figure S25B): 0.2828 | p53/GAPDH normalized to control (1) (MDA−MB−231 cells; representative blot Figure S25C): 1.183 | p21/GAPDH normalized to control (1) (MDA−MB−231 cells; representative blot Figure S25D): 1.053 | Bax/GAPDH normalized to control (1) (MDA−MB−231 cells; representative blot Figure S26A): 2.6 | Bcl2/GAPDH normalized to control (1) (MDA−MB−231 cells; representative blot Figure S26B): 0.8651 | Cytochrome C/GAPDH normalized to control (1) (MDA−MB−231 cells; representative blot Figure S26C): 2.185 | Procaspase 8/GAPDH normalized to control (1) (MDA−MB−231 cells; representative blot Figure S26D): 0.568 | Cleaved BID/GAPDH normalized to control (1) (MDA−MB−231 cells; representative blot Figure S26E): 8.533 | Procaspase 9/GAPDH normalized to control (1) (MDA−MB−231 cells; representative blot Figure S26F): 0.4557 | Procaspase 3/GAPDH normalized to control (1) (MDA−MB−231 cells; representative blot Figure S26G): 0.9471 | PARP-1/GAPDH normalized to control (1) (MDA−MB−231 cells; representative blot Figure S26H): 0.6182 | Beclin1/GAPDH normalized to control (1) (MDA−MB−231 cells; representative blot Figure S27A): 0.9592 | ATG5/GAPDH normalized to control (1) (MDA−MB−231 cells; representative blot Figure S27B): 0.8924 | ATG16L1/GAPDH normalized to control (1) (MDA−MB−231 cells; representative blot Figure S27C): 1.456 | ATG9A/GAPDH normalized to control (1) (MDA−MB−231 cells; representative blot Figure S27D): 0.8822 | ATG4B/GAPDH normalized to control (1) (MDA−MB−231 cells; representative blot Figure S27E): 2.179 | LC3B/GAPDH normalized to control (1) (MDA−MB−231 cells; representative blot Figure S27F): 0.7501
